Reference: patent US10221173B2, “Chemical compounds” (AstraZeneca AB, priority 2017, dated 2019)
pIC50: −log10 of the molar value. Values after ≈ are worked out from the molar mass of the structure shown.

Tests used:
[1] = Thermodynamic solubility (shake-flask); format: physicochemical; settings: thermodynamic from solid, phosphate buffer pH 7.4, 24 hours
[2] = target: hERG potassium channel (Homo sapiens (Human), UniProt Q12809)
[3] = Log D (shake flask, 1-octanol/aqueous buffer); format: physicochemical
[4] = Human plasma protein binding (equilibrium dialysis); format: in vitro ADME
[5] = target: Estrogen Receptor (ERα) in MCF-7 cells (Homo sapiens (Human), UniProt P03372); test: MCF-7 ER down-regulation assay (immuno-fluorescence); format: cell-based; settings: for % downregulation (in brackets): maximum downregulation
Sequence of Estrogen Receptor (ERα) in MCF-7 cells (P03372 whole entry, the tested form may be a part): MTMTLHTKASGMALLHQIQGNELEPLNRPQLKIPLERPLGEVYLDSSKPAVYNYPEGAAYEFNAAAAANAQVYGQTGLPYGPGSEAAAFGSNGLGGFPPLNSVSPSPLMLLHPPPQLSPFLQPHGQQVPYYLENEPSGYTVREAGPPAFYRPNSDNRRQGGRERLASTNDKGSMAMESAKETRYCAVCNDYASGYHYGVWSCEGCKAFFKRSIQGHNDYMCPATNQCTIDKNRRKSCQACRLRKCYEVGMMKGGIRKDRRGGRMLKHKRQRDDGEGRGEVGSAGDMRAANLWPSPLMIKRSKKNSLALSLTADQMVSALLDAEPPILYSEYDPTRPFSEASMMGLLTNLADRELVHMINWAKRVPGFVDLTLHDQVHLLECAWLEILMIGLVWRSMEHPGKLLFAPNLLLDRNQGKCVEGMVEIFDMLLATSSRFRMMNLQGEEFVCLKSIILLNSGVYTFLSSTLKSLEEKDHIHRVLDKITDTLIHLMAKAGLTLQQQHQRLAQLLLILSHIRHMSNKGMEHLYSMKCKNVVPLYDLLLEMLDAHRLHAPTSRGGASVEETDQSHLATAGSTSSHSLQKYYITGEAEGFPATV

[6] = target: recombinant human Estrogen Receptor alpha ligand binding domain (ER alpha-LBD (GST)) (Homo sapiens (Human), UniProt P03372); test: ERα binding assay (LanthaScreen TR-FRET competition)
Sequence of recombinant human Estrogen Receptor alpha ligand binding domain (ER alpha-LBD (GST)) (P03372 307-554): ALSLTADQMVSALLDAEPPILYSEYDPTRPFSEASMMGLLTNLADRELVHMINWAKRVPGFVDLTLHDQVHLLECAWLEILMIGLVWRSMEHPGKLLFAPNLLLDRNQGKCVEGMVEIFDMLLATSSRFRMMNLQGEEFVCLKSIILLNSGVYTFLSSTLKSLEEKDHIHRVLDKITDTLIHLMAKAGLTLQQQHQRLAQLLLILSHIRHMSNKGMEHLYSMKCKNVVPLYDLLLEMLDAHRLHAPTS

[7] = aqueous phosphate buffer, 25 °C, pH 7.4, aqueous buffer
[8] = 1-octanol/aqueous buffer, pH 7.4, pH 7.4

Sequence of hERG potassium channel (Q12809 whole entry): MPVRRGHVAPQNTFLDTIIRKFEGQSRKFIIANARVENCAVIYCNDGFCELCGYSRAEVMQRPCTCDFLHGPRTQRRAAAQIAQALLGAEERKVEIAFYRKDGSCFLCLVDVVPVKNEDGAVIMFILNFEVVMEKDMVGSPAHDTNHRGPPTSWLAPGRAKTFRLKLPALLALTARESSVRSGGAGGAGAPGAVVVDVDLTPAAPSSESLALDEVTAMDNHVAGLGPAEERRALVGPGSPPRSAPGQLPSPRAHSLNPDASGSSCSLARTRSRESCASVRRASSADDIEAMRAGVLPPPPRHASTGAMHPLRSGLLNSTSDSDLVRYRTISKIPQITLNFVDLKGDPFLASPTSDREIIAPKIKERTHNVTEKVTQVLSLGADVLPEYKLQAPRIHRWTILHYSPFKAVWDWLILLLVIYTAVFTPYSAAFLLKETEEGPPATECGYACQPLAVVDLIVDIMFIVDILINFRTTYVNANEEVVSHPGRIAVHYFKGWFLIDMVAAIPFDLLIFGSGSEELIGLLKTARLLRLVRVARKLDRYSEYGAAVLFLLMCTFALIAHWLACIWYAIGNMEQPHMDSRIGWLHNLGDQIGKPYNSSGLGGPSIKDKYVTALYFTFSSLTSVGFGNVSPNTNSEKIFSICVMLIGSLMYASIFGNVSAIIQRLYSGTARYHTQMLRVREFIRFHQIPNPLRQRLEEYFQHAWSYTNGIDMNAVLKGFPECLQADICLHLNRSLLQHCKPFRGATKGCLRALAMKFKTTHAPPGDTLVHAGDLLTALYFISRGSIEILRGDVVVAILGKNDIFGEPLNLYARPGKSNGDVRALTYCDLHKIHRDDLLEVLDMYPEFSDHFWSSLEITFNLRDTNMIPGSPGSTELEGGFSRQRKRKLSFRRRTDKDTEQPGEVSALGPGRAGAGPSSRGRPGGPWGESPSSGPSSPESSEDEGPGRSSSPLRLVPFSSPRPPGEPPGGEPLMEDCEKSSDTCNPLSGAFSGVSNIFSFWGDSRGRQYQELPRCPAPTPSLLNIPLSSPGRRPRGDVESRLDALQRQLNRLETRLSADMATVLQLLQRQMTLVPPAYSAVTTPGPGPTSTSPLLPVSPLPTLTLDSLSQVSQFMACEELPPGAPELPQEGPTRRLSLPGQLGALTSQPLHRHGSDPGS

Compound	solubility at 24 h [1, 7] [µM]	pIC50 [2]	logD [3, 8]	Human plasma protein binding (% free) [4] [% free]	pIC50 [5]	pIC50 [6]	% downregulation (in brackets) [5]	solubility at 24 h ([1]; aqueous buffer, 25° C.) [µM]	logD ([3]; pH 7.4)
Cc1ncc(OCCNCCCF)cc1[C@@H]1c2[nH]c3ccccc3c2C[C@@H](C)N1CC(F)(F)F [Example 37, 3-fluoro-N-(2-((6-methyl-5-((1R,3R)-3-methyl-2-(2,2,2-trifluoroethyl)-2,3,4,9-tetrahydro-1H-pyrido[3,4-b]indol-1-yl)pyridin-3-yl)oxy)ethyl)propan-1-amine]	434 (≈ 208 µg/mL)	5.46	3.6	2.3	7.46	7.92			
Cc1c(OCCN(C)CCCF)ccc(F)c1[C@@H]1c2[nH]c3ccccc3c2C[C@@H](C(F)(F)F)N1C[C@H](C)C(=O)O [Example 149, (S)-3-((1R,3S)-1-(6-fluoro-3-(2-((3-fluoropropyl)(methyl)amino)ethoxy)-2-methylphenyl)-3-(trifluoromethyl)-1,3,4,9-tetrahydro-2H-pyrido[3,4-b]indol-2-yl)-2-methylpropanoic acid]	523 (≈ 297 µg/mL)	< 4.40	2.2	5.3	9.07	8.82	86%		
Cc1c(OCCN(C)CCCF)ncc(F)c1[C@@H]1c2[nH]c3ccccc3c2C[C@@H](C)N1C(C)CC(=O)O (single isomer, unassigned) [Example 158]	> 1000	< 4.40	1.8	21	9.00	8.82			
Cc1c([C@@H]2c3[nH]c4ccccc4c3C[C@@H](C)N2C[C@H](C)C(=O)O)ccnc1OCCNCCCF [Example 132, (S)-3-((1R,3R)-1-(2-(2-((3-fluoropropyl)amino)ethoxy)-3-methylpyridin-4-yl)-3-methyl-1,3,4,9-tetrahydro-2H-pyrido[3,4-b]indol-2-yl)-2-methylpropanoic acid]	914 (≈ 441 µg/mL)	< 4.40	0.6	34	9.01	8.70			
Cc1c([C@@H]2c3[nH]c4ccccc4c3C[C@@H](C)N2CC(F)(F)CO)ccnc1OCCNCCCF [Example 103, 2,2-difluoro-3-((1R,3R)-1-(2-(2-((3-fluoropropyl)amino)ethoxy)-3-methylpyridin-4-yl)-3-methyl-1,3,4,9-tetrahydro-2H-pyrido[3,4-b]indol-2-yl)propan-1-ol]	660 (≈ 324 µg/mL)	5.37	2.9	2	10.08	9.25			
C[C@@H]1Cc2c([nH]c3ccccc23)[C@@H](c2c(F)c(F)cc(OCCNCCCF)c2F)N1CC(F)(F)F [Example 32, 3-fluoro-N-(2-(2,4,5-trifluoro-3-((1R,3R)-3-methyl-2-(2,2,2-trifluoroethyl)-2,3,4,9-tetrahydro-1H-pyrido[3,4-b]indol-1-yl)phenoxy)ethyl)propan-1-amine]	55 (≈ 28.5 µg/mL)	5.24	4.1	0.52	9.42	8.57			
C[C@@H]1Cc2c([nH]c3ccccc23)[C@@H](c2cc(OCCNCCCF)cc(F)c2F)N1CC(F)(F)F [Example 30, N-(2-(3,4-difluoro-5-((1R,3R)-3-methyl-2-(2,2,2-trifluoroethyl)-2,3,4,9-tetrahydro-1H-pyrido[3,4-b]indol-1-yl)phenoxy)ethyl)-3-fluoropropan-1-amine]	39 (≈ 19.5 µg/mL)	5.64	4.1	0.72	9.49	8.68			
COCc1ccc(OCCNCCCF)cc1[C@@H]1c2[nH]c3ccccc3c2C[C@@H](C)N1CC(F)(F)F [Example 71, 3-fluoro-N-(2-(4-(methoxymethyl)-3-((1R,3R)-3-methyl-2-(2,2,2-trifluoroethyl)-2,3,4,9-tetrahydro-1H-pyrido[3,4-b]indol-1-yl)phenoxy)ethyl)propan-1-amine]		5.24		0.44	8.70	8.47	90%	< 1.6	3.8
COc1ccc(NCCNCCCF)nc1[C@@H]1c2[nH]c3ccccc3c2C[C@@H](C)N1CC(F)(F)F [Example 43, N1-(3-fluoropropyl)-N2-(5-methoxy-6-((1S,3R)-3-methyl-2-(2,2,2-trifluoroethyl)-2,3,4,9-tetrahydro-1H-pyrido[3,4-b]indol-1-yl)pyridin-2-yl)ethane-1,2-diamine]	358 (≈ 177 µg/mL)	5.51	2.2	2.8	6.66	7.09			
COc1ccc(OCCNCCCF)c(F)c1[C@@H]1c2[nH]c3ccccc3c2C[C@@H](C)N1CC1(F)COC1 [Example 84, 3-fluoro-N-(2-(2-fluoro-3-((1R,3R)-2-((3-fluorooxetan-3-yl)methyl)-3-methyl-2,3,4,9-tetrahydro-1H-pyrido[3,4-b]indol-1-yl)-4-methoxyphenoxy)ethyl)propan-1-amine]	640 (≈ 331 µg/mL)	5.55	2.4	6	9.80	9.03	83%		
COc1ccc(OCCNCCCF)c(F)c1[C@@H]1c2[nH]c3ccc(F)cc3c2C[C@@H](C)N1CC(F)(F)CO [Example 86, 2,2-difluoro-3-((1R,3R)-6-fluoro-1-(2-fluoro-3-(2-((3-fluoropropyl)amino)ethoxy)-6-methoxyphenyl)-3-methyl-1,3,4,9-tetrahydro-2H-pyrido[3,4-b]indol-2-yl)propan-1-ol]	385 (≈ 209 µg/mL)	5.41	2.9	2.6	9.77	9.07			
C[C@@H]1Cc2c([nH]c3ccccc23)[C@@H](c2c(F)cnc(OCCNCCCF)c2F)N1CC1(F)CC1 [Example 108, N-(2-((3,5-difluoro-4-((1R,3R)-2-((1-fluorocyclopropyl)methyl)-3-methyl-2,3,4,9-tetrahydro-1H-pyrido[3,4-b]indol-1-yl)pyridin-2-yl)oxy)ethyl)-3-fluoropropan-1-amine]	375 (≈ 184 µg/mL)	5.22	3.2	2.3	9.52	9.00			
C[C@@H]1Cc2c([nH]c3ccccc23)[C@@H](c2cc(OCCNCCCF)ccc2CO)N1CC(F)(F)F [Example 70, (4-(2-((3-fluoropropyl)amino)ethoxy)-2-((1R,3R)-3-methyl-2-(2,2,2-trifluoroethyl)-2,3,4,9-tetrahydro-1H-pyrido[3,4-b]indol-1-yl)phenyl)methanol]	231 (≈ 114 µg/mL)	5.20	2.2	23	6.74	5.89			
COc1nnc(OCCNCCCF)cc1[C@@H]1c2[nH]c3ccccc3c2C[C@@H](C)N1CC(F)(F)F [Example 112, 3-fluoro-N-(2-((6-methoxy-5-((1R,3R)-3-methyl-2-(2,2,2-trifluoroethyl)-2,3,4,9-tetrahydro-1H-pyrido[3,4-b]indol-1-yl)pyridazin-3-yl)oxy)ethyl)propan-1-amine]	92 (≈ 45.6 µg/mL)	4.72	3.2	1.5	9.02	8.70			
C[C@@H]1Cc2c([nH]c3ccccc23)[C@@H](c2cccc(OCCNCCCF)n2)N1CC(F)(F)F [Example 34, 3-fluoro-N-(2-((6-((1S,3R)-3-methyl-2-(2,2,2-trifluoroethyl)-2,3,4,9-tetrahydro-1H-pyrido[3,4-b]indol-1-yl)pyridin-2-yl)oxy)ethyl)propan-1-amine]	151 (≈ 70.1 µg/mL)	5.47	3.7	2.2		6.72	— (41%)		
C[C@@H]1Cc2c([nH]c3ccccc23)[C@@H](c2nccc(NCCNCCCF)c2F)N1CC(F)(F)F [Example 94, N1-(3-fluoro-2-((1S,3R)-3-methyl-2-(2,2,2-trifluoroethyl)-2,3,4,9-tetrahydro-1H-pyrido[3,4-b]indol-1-yl)pyridin-4-yl)-N2-(3-fluoropropyl)ethane-1,2-diamine]	698 (≈ 336 µg/mL)	5.00	2.4	7	8.04	8.44			
C[C@@H]1Cc2c([nH]c3ccccc23)[C@@](C)(c2cccc(OCCNCCCF)c2)N1CC(F)(F)F [Example 75, N-(2-(3-((1R,3R)-1,3-dimethyl-2-(2,2,2-trifluoroethyl)-2,3,4,9-tetrahydro-1H-pyrido[3,4-b]indol-1-yl)phenoxy)ethyl)-3-fluoropropan-1-amine]	0.9 (≈ 0.43 µg/mL)	5.11	4.5	0.08	7.24	7.28			
C[C@@H]1Cc2c([nH]c3ccccc23)[C@@H](c2c(Cl)ccc(OCCNCCCF)c2F)N1C[C@H](C)C(=O)O [Example 54, (S)-3-((1R,3R)-1-(6-chloro-2-fluoro-3-(2-((3-fluoropropyl)amino)ethoxy)phenyl)-3-methyl-1,3,4,9-tetrahydro-2H-pyrido[3,4-b]indol-2-yl)-2-methylpropanoic acid]	> 1000	< 4.40	0.9	18	9.00	8.23			
